Experimental data published in PMC7226860 (ACS Omega, 2020).

How the values were obtained:
Test in all cases: Agar well diffusion, inhibition zone
[1] = tested on: P. aeruginosa (ATCC: 27853); format: cell-based, Pseudomonas aeruginosa; conditions: P. aeruginosa (ATCC: 27853), Gram (−ve); agar well diffusion, 15 mg/mL; mean ± SD
[2] = tested on: S. mutans (ATCC: 25175); format: cell-based, Streptococcus mutans; conditions: for diameter of the inhibition zone: S. mutans (ATCC: 25175), Gram (+ve), agar well diffusion, 15 mg/mL, mean ± SD; for zone of inhibition at 15000 µg/mL: Streptococcus mutans, read-out: diameter of the inhibition zone
[3] = tested on: C. albicans (ATCC: 10231); format: cell-based, Candida albicans; conditions: for diameter of the inhibition zone: C. albicans (ATCC: 10231), fungi, 15 mg/mL, mean ± SD
[4] = tested on: K. pneumonia (ATCC: 4415); format: cell-based, Klebsiella pneumonia; conditions: for zone of inhibition at 15000 µg/mL: Klebsiella pneumoniae, read-out: diameter of the inhibition zone, K. pneumonia (ATCC: 4415), Gram (−ve), 15 mg/mL, mean ± SD; for diameter of the inhibition zone: K. pneumonia (ATCC: 4415), Gram (−ve), 15 mg/mL, mean ± SD
[5] = tested on: E. coli (ATCC: 3008); format: cell-based, Escherichia coli; conditions: for diameter of the inhibition zone: E. coli (ATCC: 3008), Gram (−ve), agar well diffusion, 15 mg/mL, mean ± SD; for zone of inhibition at 15000 µg/mL: Escherichia coli, read-out: diameter of the inhibition zone
[6] = tested on: S. aureus (ATCC: 6538); format: cell-based, Staphylococcus aureus; conditions: for diameter of the inhibition zone: S. aureus (ATCC: 6538), Gram (+ve), agar well diffusion, 15 mg/mL, mean ± SD; for zone of inhibition at 15000 µg/mL: Staphylococcus aureus, read-out: diameter of the inhibition zone

What does the source list for `O=C(Cc1nc2ccccc2s1)NNS(=O)(=O)c1ccccc1` [compound 3a, N′-(2-(Benzo[d]thiazol-2-yl)acetyl)benzenesulfonohydrazide]?
diameter of the inhibition zone [1]: −; diameter of the inhibition zone [2]: −; diameter of the inhibition zone [3]: −; zone of inhibition at 15000 µg/mL [4]: 20 ± 3 mm; diameter of the inhibition zone [5]: − ^a; diameter of the inhibition zone [6]: −

Which “diameter of the inhibition zone” value [1] does the source give for `CSc1c(C#N)c(O)n(NS(=O)(=O)c2ccccc2)c(=O)c1-c1nc2ccccc2s1` [compound 5c, N-(3-(Benzo[d]thiazol-2-yl)-5-cyano-6-hydroxy-4-(methylthio)-2-oxopyridin-1(2H)-yl)benzenesulfonamide] here?
The value was “−”.

What about the “diameter of the inhibition zone” value [2] of the same compound?
The value was “−”.

And the “diameter of the inhibition zone” value [3]?
The value was “−”.

What about the zone of inhibition at 15000 µg/mL [4] of the same compound?
Its zone of inhibition at 15000 µg/mL is 27.3 ± 1.5 mm.

What about the zone of inhibition at 15000 µg/mL [5] of the same compound?
The zone of inhibition at 15000 µg/mL was 23.3 ± 1.5 mm.

What about the zone of inhibition at 15000 µg/mL [6] of the same compound?
The zone of inhibition at 15000 µg/mL was 17.6 ± 1.5 mm.

What does the source list for `CSc1c(C#N)c(O)n(NS(=O)(=O)c2ccc(C)cc2)c(=O)c1-c1nc2ccccc2s1` [compound 5d, N-(3-(Benzo[d]thiazol-2-yl)-5-cyano-6-hydroxy-4-(methylthio)-2-oxopyridin-1(2H)-yl)-4-methylbenzenesulfonamide]?
diameter of the inhibition zone [1]: −; diameter of the inhibition zone [2]: −; diameter of the inhibition zone [3]: −; zone of inhibition at 15000 µg/mL [4]: 18.2 ± 0.5 mm; diameter of the inhibition zone [5]: −; zone of inhibition at 15000 µg/mL [6]: 17.5 ± 2 mm

Which results are given for `CSc1c(C(=O)Nc2ccccc2)c(N)n(NS(=O)(=O)c2ccccc2)c(=O)c1-c1nc2ccccc2s1` [compound 9a, 2-Amino-5-(benzo[d]thiazol-2-yl)-4-(methylthio)-6-oxo-N-phenyl-1-(phenylsulfonamido)-1,6-dihydropyridine-3-carboxamide]?
diameter of the inhibition zone [1]: −; diameter of the inhibition zone [2]: −; diameter of the inhibition zone [3]: −; diameter of the inhibition zone [4]: −; diameter of the inhibition zone [5]: −; diameter of the inhibition zone [6]: 31 ± 1.0 mm; zone of inhibition at 15000 µg/mL [6]: 31 ± 1 mm

For `CSc1c(C(=O)Nc2ccccc2)c(N)n(NS(=O)(=O)c2ccc(C)cc2)c(=O)c1-c1nc2ccccc2s1` [compound 9b, 2-Amino-5-(benzo[d]thiazol-2-yl)-1-(4-methylphenylsulfonamido)-4-(methylthio)-6-oxo-N-phenyl-1,6-dihydropyridine-3-carboxamide], which “diameter of the inhibition zone” value [1] is on record?
The value was “−”.

And the “diameter of the inhibition zone” value [2]?
Its value is “−”.

What about the “diameter of the inhibition zone” value [3] of the same compound?
Its value is “−”.

And the “diameter of the inhibition zone” value [4]?
Its value is “−”.

What about the “diameter of the inhibition zone” value [5] of the same compound?
Its value is “−”.

And the zone of inhibition at 15000 µg/mL [6]?
The zone of inhibition at 15000 µg/mL was 27.1 ± 0.2 mm.

Which “diameter of the inhibition zone” value [1] does the source give for `CSc1c(C(=O)Nc2ccc(C)cc2)c(N)n(NS(=O)(=O)c2ccccc2)c(=O)c1-c1nc2ccccc2s1` [compound 9c, 2-Amino-5-(benzo[d]thiazol-2-yl)-4-(methylthio)-6-oxo-1-(phenylsulfonamido)-N-(p-tolyl)-1,6-dihydropyridine-3-carboxamide] here?
Its value is “−”.

What about the zone of inhibition at 15000 µg/mL [2] of the same compound?
The zone of inhibition at 15000 µg/mL was 20.2 ± 1 mm.

What about the “diameter of the inhibition zone” value [3] of the same compound?
Its value is “−”.

And the “diameter of the inhibition zone” value [4]?
Its value is 29.2 ± 0.3 mm.

What about the zone of inhibition at 15000 µg/mL [4] of the same compound?
The zone of inhibition at 15000 µg/mL was 29 mm.

What about the zone of inhibition at 15000 µg/mL [5] of the same compound?
Its zone of inhibition at 15000 µg/mL is 14.8 ± 0.2 mm.

And the “diameter of the inhibition zone” value [6]?
Its value is “−”.

Which results are given for `CSc1c(C(=O)Nc2ccc(C)cc2)c(N)n(NS(=O)(=O)c2ccc(C)cc2)c(=O)c1-c1nc2ccccc2s1` [compound 9d, 2-Amino-5-(benzo[d]thiazol-2-yl)-1-(4-methylphenylsulfonamido)-4-(methylthio)-6-oxo-N-(p-tolyl)-1,6-dihydropyridine-3-carboxamide]?
diameter of the inhibition zone [1]: −; zone of inhibition at 15000 µg/mL [2]: 8.8 ± 1 mm; diameter of the inhibition zone [3]: 28.0 ± 0.7 mm; zone of inhibition at 15000 µg/mL ([3]; Candida albicans, read-out: diameter of the inhibition zone, C. albicans (ATCC: 10231), fungi, 15 mg/mL, mean ± SD): 21 to 28 mm; diameter of the inhibition zone [4]: −; diameter of the inhibition zone [5]: −; zone of inhibition at 15000 µg/mL [6]: 26.8 ± 1.5 mm
